Columns and labels:
α1 -adrenergic receptors = assay: binding to α1-adrenergic receptors on rat brain homogenates (3H-WB 4101); settings: 1.6 nM 3H-WB 4101
Method: (§1) The activity of the compounds according to the invention with respect to binding of the α-adrenergic receptors was determined in vitro according to a method deriving from the works of B. R. Rouot et al., Life Sci., 25, 769 (1979) and of D. U'Prichard et al., Mol. Pharmacol., 13, 454 (1977). This method consists in measuring the binding to the receptor on rat brain homogenates, by marking by means of a specific tritriated ligand placed in competition with the product to be tested.
(§2) In the presenct case the binding to the α1 -adrenergic receptors was measured by means of 1.6 nM of ^3 H-WB 4101 and the binding to the α2 -adrenergic receptors by means of 0.7 nM of ^3 H-p. aminoclonidine, the non-specific binding being determined by 1,000 nM of phentolamine. The results are given in Table II, column 3, and are expressed in terms of percentage of inhibition of the specific binding of 10^-7 molar compound concentration.
(§3) (2) The specific binding is the total binding less the nonspecific
(§4) binding. The total binding is the binding in the absence of nonradioactiv
(§5) drug. The nonspecific binding is the binding in the presence of 1,000 nM
(§6) of phentolamine. The products of the invention are tested at a
(§7) concentration of 10^-7 molar.

[1] = system: bicuculline-induced tonic extension in mice; assay: protection against bicuculline-induced tonic extension in mice; type: in vivo; settings: Mus musculus, iv, 3 hours prior to bicuculline 0.7 mg/kg i.v., read-out: Anticonvulsive effect (versus Bicuculline) (% Protection)
Method: (§8) In the second study the anti-convulsant effect of the compounds of the present invention was examined in two seizure models; bicuculline-induced tonic extension in mice and 3-mercaptopropionic acid (3-MPA)-induced tonic extension in mice.
(§9) In the bicuculline study, the ability of the compounds of the present invention to protect against tonic extension (involving rigidity) was evaluated as follows. Each test compound was administered to a group of ten mice at a dose of 10 mg/kg, 3 hours prior to the i.v. administration of bicuculline (0.7 mg/kg). Anticonvulsant activity in this test is expressed as percentage of animals tested. The results are given in Table II, column 6, and indicate that several compounds display significant anticonvulsive activity in this test. The anticonvulsant effect of the compounds has also been tested with respect to the tonic extension induced by 3-mercaptopropionic acid (120 mg/kg subcutaneously) in mice.

α2 -adrenergic receptors [2] = biological target: T1, α2 -adrenergic receptors (Rattus norvegicus, UniProt P22909); assay: binding to α2-adrenergic receptors on rat brain homogenates (3H-p. aminoclonidine); settings: 10^-7 M; rat brain homogenates; 0.7 nM 3H-p. aminoclonidine; read-out: % Inhibition of the Specific Binding at 10^-7 M for α2 Recep.
T1 construct: from tissue; host or cells: rat brain homogenates
T1 sequence (P22909 1-465): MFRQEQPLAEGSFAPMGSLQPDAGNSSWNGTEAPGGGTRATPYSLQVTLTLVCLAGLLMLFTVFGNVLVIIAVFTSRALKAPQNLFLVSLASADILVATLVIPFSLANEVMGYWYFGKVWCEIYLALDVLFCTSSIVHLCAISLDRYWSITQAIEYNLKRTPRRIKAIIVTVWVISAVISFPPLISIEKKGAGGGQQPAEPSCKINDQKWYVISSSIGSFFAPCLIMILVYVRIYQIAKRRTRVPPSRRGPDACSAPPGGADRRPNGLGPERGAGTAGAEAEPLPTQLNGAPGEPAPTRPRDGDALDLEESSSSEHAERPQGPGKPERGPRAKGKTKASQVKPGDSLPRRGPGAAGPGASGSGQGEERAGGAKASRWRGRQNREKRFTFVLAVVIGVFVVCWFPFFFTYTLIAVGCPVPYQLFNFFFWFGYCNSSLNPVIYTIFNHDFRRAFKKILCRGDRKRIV
Method: as §1, §2, §3, §4, §5, §6, §7

[3] = acute toxicity after oral administration to mice (LD50); settings: mouse, in vivo, 15 days mortality
Method: The acute toxicity of the compounds of the present invention was studied after oral administration to mice. The products to be tested, suspended in a 1% tragacanth gum mucilage, were administered by means of an intragastric probe to groups of three male mice which had fasted since the preceding day. The doses tested are a function of the effect observed and can vary from 3,000 to 3 mg/kg or less. The mortality was recorded for 15 days. The lethal dose for 50% of the animals (LD50) was calculated according to the method of J. Litchfield and F. Wilcoxon, J. Pharmacol. Exp. Ther., 96, 99 (1949) and expressed in mg/kg. The effect of the products on the behaviour of the animals is observed until 5 to 6 hours after the treatment indicated above and after 24 hours, using a method derived from that of S. Irwin, described by R. A. Turner, Screening Methods in Pharmacology, Chapter 3, pages 22-34, Academic Press, 1965. If anomalies are noted, the observation is prolonged and smaller doses are tested.

[4] = system: peripheral vascular α2 receptors; assay: inhibition of the pressor effect of BHT 920 in pithed rats; type: in vivo, rat; settings: 1 mg/kg i.v., BHT 920 30 μg/kg i.v.
Method: The α2 antagonist activity of the compounds is evaluated by the inhibition of the pressor effect (blood pressure elevation), of a specific α2 agonist agent, 4H-Thiazolo[4,5-b]azetin-2-amine, 5,6,7,8-tetrahydro-6-(2-propenyl)-, dihydrochloride, designated as BHT 920 at a concentration of 30 μg/kg i.v.) according to a method described by J. C. Van Meel et al., J. Pharmacol. Exp. Ther., 219, 760-767 (1981).
The compound to be tested is administered at 1 mg/kg i.v. The ability of the compounds tested to antagonize the pressor effects of BHT 920 is determined and expressed as percentage of inhibition. Any direct hypertensive (=α2 agonist) activity of the compounds under test can likewise be detected.

[5] = system: α2 adrenergic receptors of the central nervous system; assay: inhibition of the antihypertensive action of clonidine in spontaneously hypertensive rats (SHR); type: in vivo, rat; settings: 1 mg/kg p.o., clonidine 50 μg/kg s.c.
Method: In the first study, carried out upon unanaesthetized spontaneously hypertensive rats (SHR rats), the ability of the compounds of the present invention to inhibit the antihypertensive action of clonidine was determined.
The antihypertensive activity of clonidine results from an interaction with α2 adrenergic receptors of the central nervous system, i.e., central antihypertensive actions.
In this test, two groups of SHR rats are utilized as follows. In the first group, prior to subcutaneous administration of clonidine (50 μg/kg), the SHR rats are treated with the compound to be tested (1 mg/kg p.o.) dissolved in a saline vehicle. The second group (control group) of SHR rats are treated with the saline vehicle only, prior to subcutaneous administration of clonidine.
The arterial pressure is measured in the region of the median coccygeal artery according to the method of J. Roba, A. F. DeSchaepdrijver, Exp. Anim., 4, 147-162 (1971).
The results of this assay summarized in Table II, column 5, are expressed as a percentage of inhibition of the effect of clonidine.

α2 -adrenergic receptors [6] = biological target: T2, α2 -adrenergic receptors (Cavia porcellus, UniProt Q60474); assay: α2 antagonist and α2 agonist activity in isolated guinea pig ileum (clonidine)
T2 construct: from tissue; host or cells: isolated guinea pig ileum
T2 sequence (Q60474 1-464): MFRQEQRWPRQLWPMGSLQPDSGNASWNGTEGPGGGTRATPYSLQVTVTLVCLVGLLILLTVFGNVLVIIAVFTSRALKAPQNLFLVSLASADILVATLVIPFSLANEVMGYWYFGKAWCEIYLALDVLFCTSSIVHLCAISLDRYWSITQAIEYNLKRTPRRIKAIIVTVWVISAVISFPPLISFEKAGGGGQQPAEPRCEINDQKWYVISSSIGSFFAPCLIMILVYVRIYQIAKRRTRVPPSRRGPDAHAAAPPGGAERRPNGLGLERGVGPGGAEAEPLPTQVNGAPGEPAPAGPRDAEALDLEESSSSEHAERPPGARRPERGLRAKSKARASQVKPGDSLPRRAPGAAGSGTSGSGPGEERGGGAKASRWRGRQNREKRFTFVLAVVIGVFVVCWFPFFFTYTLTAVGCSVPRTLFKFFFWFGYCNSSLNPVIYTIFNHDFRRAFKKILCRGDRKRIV
Method: The α2 antagonist and α2 agonist activity of the compounds according to the invention was determined upon isolated organs according to a model described by G. M. Drews, Br. J. Pharmaco., 64, 293-300 (1978).
This model is based upon the principle that the stimulation of the cholinergic nervous transmissions of the guinea pig ileum causes the liberation of acetyl choline, which in turn causes contractions of the ileum.
The stimulation of the α2 -adrenergic receptors inhibits the activity of the cholinergic nerve and consequently reduces all response resulting from a timulation of the latter. Thus the contractions of the ileum induced by electric stimulation of the tissue are inhibited by clonidine, an α2 agonist, in proportion to the dose. This inhibition is specifically displaced by the α2 antagonists and not by the α1 antagonists.
The method utilized can be summarized as follows: three dose-response curves to clonidine are established at an interval of 60 minutes. Two concentrations of the product to be tested are added successively 10 minutes before the realization of the second and third clonidine curves. Next, after washing, a dose-response curve is established with the product to be tested.
The dose-response curves are calculated as a percentage of the maximum inhibition obtained for the first curve. In this system the products having an α2 antagonist activity displace the dose-response curve to clonidine. The α2 antagonist activity, expressed in pA2 value, shown in column 4, is calculated according to J. M. Van Rossum, Arch. Int. Pharmacodyn., 143, 299-300 (1963).
A reduction of the contractions induced by the tested product alone indicates an α2 agonist effect. This activity is expressed in--log ED50 (the--logarithm of the concentration of the product giving 50% of the maximum inhibition obtained with clonidine).
The higher the pA2 value, the higher the α2 antagonist activity; the higher the--log ED50 value (i.e., the pA2 agonist activity), the higher the α2 agonist activity.

[7] = system: 3-mercaptopropionic acid (3-MPA)-induced tonic extension in mice; assay: protection against 3-mercaptopropionic acid (3-MPA)-induced tonic extension in mice; type: in vivo; settings: 100 mg/kg orally, 30 minutes prior to 3-MPA (120 mg/kg s.c.)
Method: as §8, §9
In the 3-MPA assay, the compounds of the present invention are administered orally at a dose of 100 mg/kg 30 minutes prior to administration of 3-MPA. Each compound was tested on a group of 5 mice; if more than 1 mouse was protected, a second group of 5 mice was tested.

Row | SMILES | % Inhibition of the Specific Binding at 10^-7 M for α1 Recep. (α1 -adrenergic receptors) [%] | responders at 10 mg/kg [1] [%] | inhibition at 0.1 µM (α2 -adrenergic receptors [2]) [%] | LD50 at 360 h [3] [mg/kg] | α2 antagonist activity, inhibition of pressor effect of BHT 920 (in words) [4] | α2 Antagonist (% Inhibition of the Antihypertension of Clonidine) [5] [%] | EC50 (α2 -adrenergic receptors [6]; 50% of maximum inhibition obtained with clonidine, read-out: α2 Agonist Activity (-log ED50) (converted)) [nM] | Kb (α2 -adrenergic receptors [6]; versus clonidine, read-out: α2 Antagonist Activity (pA2) (converted)) [nM] | anticonvulsant effect versus 3-MPA (in words) [7]
1 | Cc1ccc(C(Cc2c[nH]cn2)c2ccccc2)cc1C (stereo not shown) [Compound 22] | 4 | 20 | 22 | 155 | very active as α2 antagonist agents | 57 | – | – | –
2 | Cc1[nH]cnc1CC(c1ccccc1)c1ccccc1 [Compound 7, 4(5)-(2,2-diphenylethyl)-5(4)-methyl imidazole] | 12 | 20 | 23 | – | very active as α2 antagonist agents | 82 | 2000 | 50.1 | –
3 | CC(Cc1c[nH]cn1)(c1ccccc1)c1ccccc1 [Compound 10, 4(5)-[1-(2,2-diphenyl)-propyl]imidazole] | 0 | 27 | 6 | – | – | 46 | – | – | potent anticonvulsant effect
4 | c1ccc(-c2ccc(C(Cc3c[nH]cn3)c3ccccc3)cc2)cc1 (stereo not shown) [Compound 29, 4(5)-{[2-(4-biphenyl)-2-phenyl]ethyl}imidazole] | 15 | – | 23 | > 300 | – | – | – | – | potent anticonvulsant effect
5 | COc1ccc(C(Cc2c[nH]cn2)c2ccc(OC)cc2)cc1 [Compound 23] | 0 | 10 | 20 | – | very active as α2 antagonist agents | 40 | – | – | –
6 | Cc1ccc(C(Cc2c[nH]cn2)c2ccccc2)c(C)c1 (stereo not shown) [Compound 24] | 0 | 0 | 34 | – | – | 93 | – | – | potent anticonvulsant effect
7 | CC(O)(c1c[nH]cn1)C(c1ccccc1)c1ccccc1 (stereo not shown) [Compound 3] | 0 | 10 | 10 | – | – | 67 | – | – | potent anticonvulsant effect
